Measurements as given in patent US7053178B2, “Synthetic peptides and kits for diagnosis of anti-phospholipid syndrome” (Yeda Research Development Co., LTD, priority 1998, dated 2006).
Where no end group is shown, it is not given here.

Key:
[1] = system: anti-β2GPI ILA-1 mAb; test: ELISA for adhesion molecule expression on HUVEC exposed to ILA-1 mAb; type: cell-based, human; details: ILA-1 mAb preincubated with peptide
Procedure: FIG. 4 is a bar graph showing inhibition of expression of the adhesion molecules E-selectin, intracellular adhesion molecule-1 (ICAM-1) and vascular cell adhesion molecule-1 (VCAM-1) on HUVEC by specific inhibitory monomer peptides A, B, or C. To the HUVEC incubated with β2GPI, were added anti-β2GPI ILA-1, ILA-3 and G-3 mAbs with and without preincubation (2 h) with the peptide monomers A, B and C, respectively, and control peptide D. The expression of adhesion molecules was probed by ELISA employing biotinylated anti-human ICAM-1, VCAM-1, E-selectin and streptavidin-alkaline phosphatase. Each point represents mean±SD of three different experiments.
(h) ELISA for detecting the expression of adhesion molecules following exposure to anti-β2GPI mAbs and the inhibitory peptides. HUVEC cells grown in 96-well plates and preincubated with mAbs, with and without different concentrations of specific and irrelevant peptides (100 ug/ml), were washed, fixed with 0.1% glutaraldehyde, and then treated with PBS containing 0.2% Triton-X100 in order to permeabilize the cell membrane (Adamson et al., 1996). The plates were blocked with 3% BSA and incubated with biotinylated mouse anti-human E-selectin, anti-human intracellular adhesion molecule-1 (ICAM-1) or anti-human vascular cell adhesion molecule-1 (VCAM-1) (PharMingen, Torreyana Road, San Diego, Calif.) 1 μg/ml for 1 hour. The cells were then exposed to streptavidin alkaline phosphatase (Jackson) and appropriate substrate.
The enhancement of monocytes to endothelial cells followed by increase in the amount of adhesion molecules expression, as a result of exposure of endothelial cells to anti-β2GPI mAbs, has been observed previously at the laboratory of one of the present inventors. The effect of each specific peptide monomer A, B, C on the expression of the adhesion molecules E-selectin, ICAM-1 and VCAM-1 on HUVEC caused by the corresponding anti-β2GPI mAb, was examined according to Materials and Methods, section (h). […]

[2] = system: experimental APS induced by anti-β2GPI mAb ILA-1; test: Murine experimental APS induced by ILA-1 mAb; type: in vivo, BALB/c mice; details: for aPTT (activated partial thromboplastin time): mice infused i.v. with 20 μg ILA-1 mAb day 0 of pregnancy; for Platelet count / % Fetal loss (Resorbed fetuses/Total fetuses): mice infused with ILA-1 mAb
Procedure: (i) Mice: Female BALB/c mice, aged 10–12 weeks, were purchased from Tel-Aviv University Animal House, Israel. The females were caged overnight with BALB/c males and examined for vaginal plug next morning. The presence of the plug was considered as day 0 of pregnancy in all the studied groups. (j) Induction of murine experimental APS. Mice were infused intravenously with 20 μg of each one of the anti-β2GPI ILA-1, ILA-3, and G-3 mAbs at day 0 (the day at which a vaginal plug was observed following mating) (Blank et al., 1991), 6 hours later the mice received daily 40 μg/mouse of the tested peptides during 3 days. The mice were bled and sacrificed on day 15 of pregnancy. Fetal resorptions, activated partial thromboplastin time and platelet counts (markers of the APS-equivalent in mice) were determined as described (Blank et al., 1991). Significant fetal loss, thrombocytopenia and prolonged activated thromboplastin time (aPTT) were induced in naive mice following passive intravenous administration of the three anti-β2GPI mAbs ILA-1, ILA-3 and G-3, as described in Materials and Methods, section (j). The clinical manifestations of the experimental APS were prevented by infusion of the specific peptide monomers A, B, C which were delivered to the mice with the corresponding pathogenic anti-β2GPI mAbs, as shown in Table 2. […] Similarly, mice which were preinfused with control IgM and received a cocktail of the peptide monomers (A+B+C), were not affected.

[3] = system: anti-β2GPI G-3 mAb; test: Cyto-ELISA: inhibition of G-3 mAb binding to HUVEC; set-up: species or system human; details: peptide concentration of 10 μM
Procedure: FIGS. 2A–2C are graphs showing inhibition of the anti-β2GPI ILA-1, ILA-3 and G-3 mAbs binding to human umbilical vein endothelial cells (HUVEC) by competition assays using increasing concentrations of the inhibitory monomer peptides A, B and C, respectively, and of unrelated peptide D as control. The percent of inhibition was calculated as in FIG. 1 above. Each point represents mean±SD of three different experiments.
(f) Anti-β2GPI mAb binding to endothelial cells in the presence of the inhibitory peptides. Human umbilical vein endothelial cells (HUVEC) were isolated as previously described and cultured under standard conditions (Jaffe et al., 1973). Briefly, umbilical cords were treated with collagenase (0.2% from Clostridium histolyticum, Boehringer) for 20 min at 37° C., cells were cultured in medium 199 with 20% FCS, 10 μg/ml growth supplement, 100 μg/ml heparin and antibiotics (streptomycin, penicillin), and used at passages 1–2 for plating onto gelatin-coated 96-well plates. Cyto-ELISA was performed as detailed before (Jaffe et al., 1973). Briefly, mAbs at different concentrations were added to HUVEC confluent wells, previously coated with 10 μg/ml β2GPI for 2 hours and fixed with 0.1% glutaraldehyde. The bound mAb was detected by further 1-hour incubation with alkaline phosphatase-conjugated goat anti-human IgM. […]

[4] = peptide 40 μg/mouse daily 3 days, day 15

Sequence | E-selectin expression by HUVEC [1] | ICAM-1 expression by HUVEC [1] | VCAM-1 expression by HUVEC [1] | aPTT (activated partial thromboplastin time) [2, 4] | aPTT (activated partial thromboplastin time) ([2]; peptide 40 μg/mouse daily 3 days, day 15, listed as peptide A) | Platelet count [2] | % Fetal loss (Resorbed fetuses/Total fetuses) [2, 4] | Platelet count [2, 4] | % Fetal loss (Resorbed fetuses/Total fetuses) ([2]; peptide 40 μg/mouse daily 3 days, day 15, listed as peptide monomer A) | inhibition of G-3 mAb binding to HUVEC [3]
NTLKTPRVGG [Peptide A] | 0.239±0.064 O.D. | 0.204±0.072 O.D. | 0.252±0.071 O.D. | 33 ± 4 s | 33 ± 4 s | 989±103 cells/mm^3×10^3 | 8 ± 2% | 989 | 8±2% | –
CATLRVYKGG [Peptide C] | – | – | – | – | – | – | – | – | – | 92%
